Source: PubChem BioAssay AID651993 (Sanford-Burnham Center for Chemical Genomics, 2013)
Calls of active or inactive are those of the source.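 Rule for the calls: active = compounds with mean IC50 at or below 50 µM in this heat-shock counterscreen, flagging likely artifacts; inactive = the rest.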

Tested on: C. elegans VP596 Phsp-16.2 GFP/RFP heat-shock reporter
Assay: heat-induced hsp-16.2 reporter inhibition in nematodes, SAR follow-up, counter-screen for SKN-1 inhibitor project, whole organism, C. elegans VP596, GFP/RFP ratio fluorescence (AID 651993)

SMILES | IC50
COc1cc(CNC2CCCC2)cc(Cl)c1OCc1ccc(F)cc1 | > 64 µM (inactive)
Clc1ccc(Nc2nc(-c3cccs3)cs2)nc1 | > 64 µM (inactive)
Clc1ccc(-c2nnc(-c3ccccc3)o2)c(Cl)c1 | > 64 µM (inactive)
c1ccc(-c2csc(-c3ccncc3)n2)cc1 | > 64 µM (inactive)
Fc1ccc(COc2ccc(-c3nnco3)cc2)c(Cl)c1 | > 64 µM (inactive)
Brc1ccc(CSc2nnc(-c3ccco3)o2)cc1 | > 64 µM (inactive)
CCOc1cc(CNC2CCCC2)cc(Cl)c1OCc1ccc(F)cc1 | > 64 µM (inactive)
O=C(/C=C/Nc1ccc(Br)cc1F)c1ccco1 | > 64 µM (inactive)
Fc1ccc(COc2ccc(-c3nnco3)cc2)cc1 | > 64 µM (inactive)
Brc1ccc(-c2nc(-c3ccccc3)no2)o1 | > 64 µM (inactive)
c1ccc2sc(SCc3ccc(-c4nnco4)cc3)nc2c1 | > 64 µM (inactive)
Fc1ccc(-c2csc(Nc3ccccn3)n2)cc1 | > 64 µM (inactive)
CCOC(=O)c1c(-c2ccc(-c3ccccc3)cc2)csc1NC(=O)CNCCN(C)C | > 64 µM (inactive)
O=C(Nc1nc2c(ccc3ccccc32)s1)c1ccco1 | > 64 µM (inactive)
Fc1ccc(-c2csc(-c3ccncc3)n2)cc1 | > 64 µM (inactive)
Brc1ccc(CSc2nnc(-c3cccnc3)o2)cc1 | > 64 µM (inactive)
COc1cc(CNC(C)(C)CO)cc(Br)c1OCc1ccc(Cl)cc1 | > 64 µM (inactive)
COc1ccc(C(=O)Nc2nc(-c3cccs3)cs2)cc1 | > 64 µM (inactive)
CCOc1cc(CNCCSc2nnnn2C)cc(Br)c1OCc1ccc(F)cc1 | > 64 µM (inactive)
Clc1ccccc1-c1nnc(-c2ccccc2Cl)o1 | > 64 µM (inactive)

SMILES | IC50
CCOc1ccc(-c2nc(-c3cccnc3)no2)cc1 | > 64 µM (inactive)
Cc1ccccc1-c1noc(-c2cccs2)n1 | > 64 µM (inactive)
c1ccc(Nc2nc(-c3cccs3)cs2)nc1 | > 64 µM (inactive)
c1ccc(-c2csc(Nc3ccccn3)n2)cc1 | > 64 µM (inactive)
c1ccc(SCc2cc(-c3ccccc3)no2)cc1 | > 64 µM (inactive)
O=C(Nc1nc(-c2ccccc2)cs1)c1cccs1 | > 64 µM (inactive)
O=C(Nc1ccc(CN2CCOCC2)cc1)c1cc2ccccc2o1 | > 64 µM (inactive)
O=C(/C=C/Nc1ccc(F)c(Cl)c1)c1ccco1 | > 64 µM (inactive)
O=C(/C=C/Nc1ccccc1F)c1cccs1 | > 64 µM (inactive)
O=C(Nc1nc(-c2ccc(Cl)s2)cs1)c1ccccc1 | > 64 µM (inactive)
O=C(Nc1nccs1)c1ccc2ccccc2n1 | > 64 µM (inactive)
CCOc1cc(CNC2CCCC2)cc(Cl)c1OCc1ccccc1 | > 64 µM (inactive)
Cc1ccc(CSc2nnc(-c3ccco3)o2)cc1 | > 64 µM (inactive)
O=C(/C=C/c1ccccc1)Nc1ccc(CN2CCOCC2)cc1 | > 64 µM (inactive)
O=C(/C=C/Nc1ccc(F)cc1F)c1ccco1 | > 64 µM (inactive)
Cc1ccc(N=C/C(C(=O)C(F)(F)F)=C(\O)c2ccco2)cc1Cl | > 64 µM (inactive)
Clc1ccccc1-c1nc(-c2ccncc2)no1 | > 64 µM (inactive)
Cc1ccc2nc(-c3ccc(NC(=S)NC4CC(C)(C)NC(C)(C)C4)cc3)sc2c1 | > 64 µM (inactive)
COc1cc(CNC(C)c2ccccc2)cc(Br)c1OCc1ccc(F)cc1 (stereo not drawn) | > 64 µM (inactive)
CCc1ccc(-c2nc(-c3ccncc3)no2)cc1 | > 64 µM (inactive)

SMILES | IC50
CC(C)c1ccc(C(=O)Nc2ccc(CN3CCOCC3)cc2)cc1 | > 64 µM (inactive)
CSc1cccc(NC(=O)c2cccc3cccnc23)c1 | > 64 µM (inactive)
Cc1nc2ccccc2cc1OCc1ccc(F)cc1 | 9.02 µM
Cc1ccc(Nc2nc(-c3cccs3)cs2)nc1 | > 64 µM (inactive)
Brc1ccc(-c2nnc(-c3ccco3)o2)cc1 | > 64 µM (inactive)
c1ccc(-c2nc(-c3ccncc3)no2)cc1 | > 64 µM (inactive)
O=C(/C=C/c1cccs1)c1ccc(Br)cc1 | > 64 µM (inactive)
Cc1oc(-c2ccc(-c3ccccc3)cc2)nc1CN(C)C1CCOC1 (stereo not drawn) | > 64 µM (inactive)
CCOC(=O)Nc1nc(-c2ccc(F)cc2F)cs1 | > 64 µM (inactive)
O=C(/C=C/Nc1ccc(F)c(F)c1)c1cccs1 | > 64 µM (inactive)
O=C(Nc1nc(-c2ccc(Cl)s2)cs1)c1ccco1 | > 64 µM (inactive)
O=C(/C=C/c1ccc(Br)cc1)c1ccc(NC2=NCCCS2)cc1 | > 64 µM (inactive)
Cc1cc(OCc2cccc(Cl)c2)c(C)cc1CN1CCOCC1 | > 64 µM (inactive)
O=C(/C=C/Nc1ccc(F)cc1F)c1cccs1 | > 64 µM (inactive)
Cc1ccc(-c2noc(-c3cccs3)n2)cc1 | > 64 µM (inactive)
c1ccc2oc(SCc3nc4ccccc4s3)nc2c1 | > 64 µM (inactive)
Clc1ccc(-c2nnc(-c3ccco3)o2)cc1 | > 64 µM (inactive)
O=C(Nc1nc(-c2ccc(Cl)s2)cs1)c1cccs1 | > 64 µM (inactive)
